Where “and” joins values, the source holds several entries; their conditions need not be identical. Identical values can stand only once.
Key:
[1] = tested on: tumor cell lines and types; details: Laszlo et al. 1958; cited from earlier work
tumor = details: cited from earlier work; for survival time / tumor growth: animal studies, Laszlo et al. 1960
[2] = tested on: hepatocellular carcinoma cell lines; assay: Sulforhodamine B (SRB) growth inhibition assay; assay type: cell-based, Human; details: continuous treatment 72 h
Experimental: The cells are cultured at 37 degrees C. in a humidified atmosphere containing 5% CO2. For passaging, cells grown in 75 cm2 flasks (6070% confluency) are washed with PBS and dissolved from the flasks with trypsin (Gibco BRL) before being plated. Ten thousand cells are plated into each well of a 96-well microtiter plate in 100 ul of medium. The cells are then incubated for 24 h at 37 degrees C. in a humidified atmosphere containing 5% CO2 prior to exposure to the 2-DG analog or other anti-cancer agent. Cultures are treated with a range of concentrations of 2-DGaI or a 2-DGaI analog solubilized in cell culture medium, diluted 100× to the desired concentration, continuously for 72 h. Docetaxel (Taxotere™, Aventis Pharmaceuticals, Inc.) solubilized in 100% DMSO and diluted 1000× to the desired concentration, is used as a positive control. The sulforhodamine B (SRB) assay, a dye-based method for determining cell number by virtue of SRB binding to basic amino acids of cellular macromolecules, is employed to assess the growth inhibitory activity of 2-DGal or a 2-DGal analog.

[3] = tested on: liver tumor serially passaged in nude mice; assay: Tumor growth delay study in a mouse xenograft model; assay type: in vivo; details: in combination with cisplatin (1 mg/kg i.p. days 1 to 5); 750 mg/kg orally twice daily; versus cisplatin alone
From the text: The efficacy of 2-DGaI or a 2-DGaI analog in combination with cisplatin can be compared with cisplatin alone in a tumor growth delay study in a mouse xenograft model. Small pieces of tumor, such as a liver tumor serially passaged in nude mice, are implanted subcutaneously in nude mice, and the tumors allowed to grow to 25 mm^2. Mice are then randomized to receive no treatment, treatment with 2-DGal or a 2-DGal analog alone, treatment with cisplatin alone, or treatment with both 2-DGal or a 2-DGaI analog and cisplatin. Cisplatin is dosed i.p. at 1 mg/kg on days 1 to 5.2-DGaI or a 2-DGaI analog is dosed orally at 750 mg/kg, twice daily, for the duration of the experiment. Each mouse is sacrificed when its tumor volume reaches 1000 mg.

CD 1 mice = assay: Liver toxicity study of 2-Fluoro-2-deoxygalactose, serum chemistry and clinical observations; assay type: in vivo; details: for Alt (alanine aminotransferase) / Ast (aspartate aminotransferase) / Tbili (total bilirubin): about 0.2 ml, male CD-1 mice, Day 2, individual animals
Experimental: The objective of this study was to evaluate the liver toxicity of 2-Fluoro-2-deoxygalactose when administered via intraperitoneal or intravenous injection to CD 1 mice. The study was initiated on Jan. 11, 2007, and consisted of three groups with three (3) male mice per group. On Day 1, each mouse GROUP was administered either about 0.2 ml of 10% 2 Fluoro 2 Deoxygalactose, intraperitoneally, about 0.2 ml of 10% 2 Fluoro 2 Deoxygalactose, intravenously, or about 0.2 ml of sterile 0.9% sodium chloride for injection, USP, intravenously. Criteria for evaluation included clinical observations and limited serum chemistry parameters (alanine aminotransferase [ALT], aspartate aminotransferase [AST], and total bilirubin). On Day 2, all animals were euthanized, blood was collected, and livers were collected and stored for potential histopathological evaluation.
Clinical observations were performed at least once daily.

normal liver tissue = assay: Uptake of 2-Fluoro-2-deoxygalactose by normal liver tissue

For `O=CC[C@@H](O)[C@H](O)[C@H](O)CO` [2-DG, 2-Deoxy-D-glucose, reference compound], the inhibition of glycolysis [1] is given as “inhibit glycolysis”, the “tumor growth in animal models” value (tumor; Sokoloff 1955, Ball 1957) is given as “retard tumor growth” and the survival time (tumor) is given as “modest prolongation of survival time”. For the same compound, the tumor growth (tumor) was “inhibition of tumor growth”.
For `O=CC[C@@H](O)[C@@H](O)[C@H](O)CO` [2-DGal, 2-Deoxy-D-galactose], the “growth of hepatocellular carcinoma cell lines” value [2] is listed as “inhibits the growth”, the tumor growth delay [3] is listed as “delays tumor growth significantly more than treatment with cisplatin alone” and the inhibition of glycolysis [1] is listed as “inhibit glycolysis”. For the same compound, the survival time (tumor) was “modest prolongation of survival time”, the tumor growth (tumor) was “inhibition of tumor growth” and the “efficacy relative to 2-DG” value (tumor; model systems of Laszlo et al. 1960) was “less efficacious”.
With `O=C[C@H](F)[C@@H](O)[C@@H](O)[C@H](O)CO` [2-Fluoro-2-deoxygalactose, 2-fluoro-2-deoxy-D-galactose] the concentration of transaminases (CD 1 mice; CD1 mice, intraperitoneally) was “increases in concentration of transaminases”, the “Alt (alanine aminotransferase)” value (CD 1 mice; Group 2, 10% 2-Fluoro-2-deoxygalactose intraperitoneally) was 109 U/L and 73 U/L and 72 U/L and the “Ast (aspartate aminotransferase)” value (CD 1 mice; Group 2, 10% intraperitoneally) was 234 U/L and 114 U/L and 118 U/L. The “Tbili (total bilirubin)” value (CD 1 mice; Group 2, 10% intraperitoneally) was 0.2 mg/dL (2×) and 0.3 mg/dL, the “Alt (alanine aminotransferase)” value (CD 1 mice; Group 3, 10% 2-Fluoro-2-deoxygalactose intravenously) was 45 U/L and 124 U/L and 30 U/L and the “Ast (aspartate aminotransferase)” value (CD 1 mice; Group 3, 10% intravenously) was 112 U/L and 116 U/L and 52 U/L. For the same compound, the “Tbili (total bilirubin)” value (CD 1 mice; Group 3, 10% intravenously) was 0.2 mg/dL (2×) and 0.1 mg/dL, the gross pathology finding (CD 1 mice; intraperitoneal administered group) was “gross pathology finding of a single animal” and the “rise in ALT and AST over normal animals” value (CD 1 mice; intraperitoneal group, versus the two expected controls of Group 1) was 2-3 ×. The unscheduled deaths (CD 1 mice; intraperitoneal or intravenous single injection, CD 1 mice) was “no unscheduled deaths”, the “test article related clinical findings” value (CD 1 mice; intraperitoneal or intravenous single injection, clinical observations at least once daily) was “no adverse test article related clinical findings” and the “elevated enzymes (ALT, AST)” value (CD 1 mice; intravenous group, at 24 hours) was “one animal with elevated enzymes at 24 hours and two that has returned to normal”.
For `O=C[C@H](O)[C@@H](O)[C@@H](O)[C@H](O)CO` [galactose], the “inhibition of uptake of 2-Fluoro-2-deoxygalactose” value (normal liver tissue) was “markedly inhibits the uptake”.

Source: patent publication US20090163442A1, “TREATMENT OF CANCER WITH 2-DEOXYGALACTOSE” (priority 2007, published 2009)
